Assay results: patent US20220362386A1, “LIQUID COMPOSITIONS COMPRISING A LEVODOPA AMINO ACID CONJUGATE AND USES THEREOF” (NeuroDerm, Ltd., priority 2019, published 2022)
Counter-ions that a name gives are not always drawn. Like-named read-outs stand apart in the source and are kept apart here. Non-standard residues stand in square brackets, D forms with d. Residues, ends and D or L forms follow the SMILES beside them. Dopa = N[C@@H](Cc1ccc(O)c(O)c1)C(=O)O

Tests used:
physchem = format: physicochemical; conditions: for solubility thermodynamic: 25 °C, thermodynamic from solid, read-out: LD-Lys TFA salt concentration
[1] = Stability observation of the solubility solutions at 25° C. (visual inspection for precipitants); format: physicochemical; conditions: 0.75% CD solution
Experimental: The volume of the solution in the bottle was adjusted to 5 ml, either by adding solvent, or be removing any residual solution, after which the bottle was tightly closed and left at 25° C. for stability observation. […] It is further noted that throughout this document, unless mentioned otherwise, the stability was measured using the manual visual inspection Bosch apparatus MIH DX, at a magnification of ×1.75.

Caco-2 cells = assay: In-vitro absorption, Caco-2 A-B permeability; format: in vitro ADME, human; conditions: Caco-2 A-B; both with and without verapamil
Experimental: Conditions may be adjusted when necessary.
D denotes donor and R is receiver. […] V is the volume of the donor or receiver.
The test was performed with and without verapamil, which is a permeation inhibitor, and the results are presented in Tables 22 (without verapamil) and 34 (with verapamil).

[2] = solvent 0.75% CD solution, pH 6.5, precipitated
[3] = solvent 0.75% CD solution, pH 7.4 (line r20)
[4] = solvent 0.75% CD solution, pH 7.4, precipitated (line r14)
[5] = solvent […] CD solution, pH 8.36

NCCCC[C@H](NC(=O)[C@@H](N)Cc1ccc(O)c(O)c1)C(=O)O [LD-Lys TFA salt, Levodopa Lysine TFA Salt] (H-[Dopa]-Lys-OH)
Appearance (physchem; 0.1% NaBis in WFI, pH 7.0, 520 mg/ml salt): clear | Appearance (physchem; 0.75% CD solution, pH 6.5, 250 mg/ml salt): precipitated | Appearance (physchem; 0.75% CD solution, pH 7.4, 205 mg/ml salt): clear | Appearance (physchem; 0.75% CD solution, pH 7.4, 250 mg/ml salt): precipitated | solubility thermodynamic (physchem; aqueous buffer, solvent 0.1% NaBis in WFI, pH 7.0): 520 mg/mL | solubility thermodynamic (physchem; water, solvent WFI, pH 1.86): 770 mg/mL | Appearance (physchem; WFI, pH 1.86, 770 mg/ml salt): clear | Appearance (physchem; WFI, pH 7.1, 600 mg/ml salt): clear | Appearance (physchem; […] CD solution, pH 8.36, 180 mg/ml salt): clear | LD-Lys free base Concentration (physchem; solvent 0.1% NaBis in WFI, pH 7.0): 310 mg/mL | LD-Lys TFA salt concentration (physchem; [2]): 250 mg/mL | LD-Lys free base Concentration (physchem; [2]): 150 mg/mL | LD-Lys TFA salt concentration (physchem; [3]): 205 mg/mL | LD-Lys free base Concentration (physchem; [3]): 120 mg/mL | LD-Lys TFA salt concentration (physchem; [4]): 250 mg/mL | LD-Lys free base Concentration (physchem; [4]): 150 mg/mL | LD-Lys free base Concentration (physchem; solvent WFI, pH 1.86): 450 mg/mL | LD-Lys TFA salt concentration (physchem; solvent WFI, pH 7.1): 600 mg/mL | LD-Lys free base Concentration (physchem; solvent WFI, pH 7.1): 350 mg/mL | LD-Lys TFA salt concentration (physchem; [5]): 180 mg/mL | LD-Lys free base Concentration (physchem; [5]): 110 mg/mL | Stability ([1]; pH 6.5, 250 mg/ml salt): Precipitated* (precipitated within 12 hours) | Stability ([1]; pH 7.4, 250 mg/ml salt): Precipitated* (precipitated within 12 hours)

N[C@@H](CSC[C@H](NC(=O)[C@@H](N)Cc1ccc(O)c(O)c1)C(=O)O)C(=O)O (single isomer, unassigned; peak 2) [LD-LA2 TFA salt, Levodopa Lanthionine Peak 2 TFA Salt]
mean permeability compared with the other compounds (in words) (Caco-2 cells): highest mean permeability
